This note sets out measurements from patent US10758541B2, “Formulations of milciclib and therapeutic combinations of the same for use in the treatment of cancer” (Tiziana Life Sciences PLC, priority 2017, dated 2020).

This assay relates to MHCC97H human liver cells. Put plainly: Orthotopic tumor induction in athymic nude mice. The assay is classed as in vivo. The conditions noted are these: oral, once daily day 12 to 47; milciclib 30 mg/kg/day, sorafenib 20 mg/kg/day; vs vehicle. The protocol: Mouse experiments were performed in accordance with the guidelines approved by the Institutional Animal Care and use committee of Washington Biotechnology Inc (Baltimore, Md.) where the studies were conducted. (FIG. 66) Test agents were dissolved in chremophor/ethanol (1:1) to make a 5× stock solution and diluted in water when used. MHCC97H human liver cells (5×106) in PBS were mixed with 20% Matrigel and then inoculated orthotopically into the right flank of female Balb/c nude mice. Seven days after cell inoculation, the mice were randomly allocated to either the treatment group (n=12) or the control group (n=12) based on the levels of AFP. The daily animal inspection was conducted for general appearance and tumor growth. Milciclib (30 mg/Kg), sorafenib (20 mg/Kg), milciclib+sorafenib or the corresponding vehicle was given orally to individual mice once daily from day 12 until day 47. After completion of the treatment at day 48, animals were euthanized and blood, liver tissues and tumor were collected for gene expression and mechanistic assays. Liver tumors developed 100% of animals challenged with orthotopic MHCC97H injection.

`CNC(=O)c1nn(C)c2c1C(C)(C)Cc1cnc(Nc3ccc(N4CCN(C)CC4)cc3)nc1-2` [MILCICLIB, N,1,4,4-tetramethyl-8-((4-(4-methylpiperazin-1-yl)phenyl)amino)-4,5-dihydro-1H-pyrazolo[4,3-h]quinazoline-3-carboxamide] gave a reducing tumor growth of 20%.
